The values below come from patent publication US20260152503A1, “SPIROBICYCLIC COMPOUNDS” (ACERAND THERAPEUTICS (HONG KONG) LIMITED, priority 2022, published 2026).

One test addresses T1, Ba/F3 FGFR2-V564F (Homo sapiens, UniProt P21802, V564F, cells depend on it).
T1 construct: fused on or other part: Q9H694 (Protein bicaudal C homolog 1)
Nature of the test: 2D cell proliferation assay, Ba/F3 FGFR2-V564F. In kind it is cell-based, mouse. Conditions: 96 hours, CTG, read-out: Cell Line, IC50 Ba/F3 FGFR2-V564F. The gist of the method:
(§1)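 Cells seeded at 3000–5000 cells/well in RPMI-1640 or DMEM with 10% FBS, treated next day with compounds at 0.000038–10 μM final (4-fold, 10 points) for 96 h at 37°C, 5% CO2. Viability by CellTiter-Glo luminescence; IC50 from sigmoidal variable-slope fit.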

A further test deals with KATO III. Nature of the test: 2D cell proliferation assay, KATO III. Type of test: cell-based. As to conditions: Homo sapiens, 96 hours, CTG, read-out: Cell Line, IC50 KATO III. A digest of the protocol: as §1
For the next test, the target named is T2, FGFR1 (Homo sapiens, UniProt P11362).
T2 construct: DMS114 (FGFR1 amplification); host or cells: DMS114
T2 sequence (P11362 22-822): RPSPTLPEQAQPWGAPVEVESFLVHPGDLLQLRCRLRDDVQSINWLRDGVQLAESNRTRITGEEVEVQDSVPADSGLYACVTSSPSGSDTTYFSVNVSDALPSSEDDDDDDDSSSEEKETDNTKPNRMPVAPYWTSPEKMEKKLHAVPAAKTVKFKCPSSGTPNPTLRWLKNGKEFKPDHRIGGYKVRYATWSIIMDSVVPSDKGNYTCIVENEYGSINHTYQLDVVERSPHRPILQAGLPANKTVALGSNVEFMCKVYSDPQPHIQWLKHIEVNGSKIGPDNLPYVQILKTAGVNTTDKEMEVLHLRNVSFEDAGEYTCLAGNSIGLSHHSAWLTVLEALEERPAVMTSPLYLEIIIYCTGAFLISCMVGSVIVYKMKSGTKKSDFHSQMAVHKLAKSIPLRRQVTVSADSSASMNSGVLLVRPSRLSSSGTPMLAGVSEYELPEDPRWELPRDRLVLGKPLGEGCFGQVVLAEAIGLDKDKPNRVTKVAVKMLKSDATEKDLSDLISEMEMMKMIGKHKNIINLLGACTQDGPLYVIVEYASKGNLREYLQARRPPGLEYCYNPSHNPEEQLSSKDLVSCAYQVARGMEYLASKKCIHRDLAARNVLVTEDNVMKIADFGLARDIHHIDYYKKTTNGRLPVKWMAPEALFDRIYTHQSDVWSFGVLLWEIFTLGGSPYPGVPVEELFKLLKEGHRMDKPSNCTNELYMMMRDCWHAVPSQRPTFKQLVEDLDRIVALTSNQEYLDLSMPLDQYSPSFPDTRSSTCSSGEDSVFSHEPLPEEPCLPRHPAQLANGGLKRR
The test can be described thus: pERK potency assay (In Cell ELISA), DMS114 cells. As to conditions: DMS114 (FGFR1 amplification) cells, 3 hours. In kind it is cell-based. A digest of the protocol:
(§2)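 Cells with FGFR aberrations (DMS114 FGFR1 amplification, RT112 FGFR3-TACC3 fusion, AN3CA FGFR2 K310R/N549K) exposed 3 h at 37 °C to compound, final 0.000038–10 μM (4-fold dilutions). pERK (Thr202/Tyr204) quantified by In-Cell ELISA chemiluminescence; IC50 from 4-parameter sigmoidal fit.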

The next test relates to AN3CA. Nature of the test: 2D cell proliferation assay, AN3CA. In kind it is cell-based. As to conditions: Homo sapiens, AN3-CA, 96 hours, CTG, read-out: Cell Line, IC50 AN3CA. The gist of the method: as §1
For the next test, the system named is SNU-16. Nature of the test: 2D cell proliferation assay, SNU-16. In kind it is cell-based. As to conditions: Homo sapiens, 96 hours, CTG, read-out: Cell Line, IC50 SNU-16. The gist of the method: as §1
The target of a further test is T3, FGFR2 (Homo sapiens, UniProt P21802, K310R/N549K).
T3 construct: in FGFR aberrations of AN3CA (FGFR2/k310R, N549K); host or cells: AN3CA
T3 sequence (P21802 22-821 K310R/N549K): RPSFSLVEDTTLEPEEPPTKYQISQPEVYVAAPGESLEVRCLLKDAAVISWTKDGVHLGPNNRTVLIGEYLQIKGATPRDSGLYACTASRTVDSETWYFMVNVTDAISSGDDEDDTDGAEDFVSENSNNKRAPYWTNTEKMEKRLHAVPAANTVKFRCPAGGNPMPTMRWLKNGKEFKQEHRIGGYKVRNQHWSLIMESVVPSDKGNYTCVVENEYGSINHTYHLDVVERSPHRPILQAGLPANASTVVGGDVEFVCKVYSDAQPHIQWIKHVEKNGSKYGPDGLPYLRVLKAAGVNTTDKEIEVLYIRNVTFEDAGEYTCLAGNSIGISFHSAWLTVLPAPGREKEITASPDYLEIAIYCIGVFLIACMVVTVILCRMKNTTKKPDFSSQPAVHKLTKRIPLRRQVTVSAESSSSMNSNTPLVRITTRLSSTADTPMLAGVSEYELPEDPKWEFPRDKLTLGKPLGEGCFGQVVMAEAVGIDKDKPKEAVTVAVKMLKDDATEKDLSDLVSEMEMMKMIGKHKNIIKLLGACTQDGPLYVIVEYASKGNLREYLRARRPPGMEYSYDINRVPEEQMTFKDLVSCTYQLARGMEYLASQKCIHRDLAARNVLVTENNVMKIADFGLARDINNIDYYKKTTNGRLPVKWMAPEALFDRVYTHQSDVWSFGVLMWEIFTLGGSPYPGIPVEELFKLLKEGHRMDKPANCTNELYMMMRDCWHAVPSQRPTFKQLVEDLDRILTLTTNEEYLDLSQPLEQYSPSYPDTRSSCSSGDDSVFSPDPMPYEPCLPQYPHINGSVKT
Nature of the test: pERK potency assay (In Cell ELISA), AN3CA cells. Type of test: cell-based. Conditions: for IC50: pERK, AN3CA (FGFR2/k310R, N549K) cells, 3 hours; for FGFR1 IC50/FGFR2 IC50 / FGFR3 IC50/FGFR2 IC50: selectivity ratio, pERK potency; for FGFR1 IC50/FGFR2 IC50: FGFR2 relative to FGFR1; for FGFR3 IC50/FGFR2 IC50: FGFR2 relative to FGFR3. The gist of the method: as §2

The next test has as its target T4, Ba/F3 FGFR2-N549K (Homo sapiens, UniProt P21802, N549K, cells depend on it).
T4 construct: fused on or other part: Q9H694 (Protein bicaudal C homolog 1)
Nature of the test: 2D cell proliferation assay, Ba/F3 FGFR2-N549K. Conditions: 96 hours, CTG, read-out: Cell Line, IC50 Ba/F3 FGFR2-N549K. Type of test: cell-based, mouse. The gist of the method: as §1

A further test addresses T5, FGFR3 (Homo sapiens, UniProt P22607).
T5 construct: RT112 (FGFR3 overexpression/FGFR3-TACC3 fusion); host or cells: RT112; the other entry of the earlier key: TACC3 (Q9Y6A5, Transforming acidic coiled-coil-containing protein 3)
Nature of the test: pERK potency assay (In Cell ELISA), RT112 cells. Type of test: cell-based. As to conditions: RT112 (FGFR3 overexpression/FGFR3-TACC3 fusion) cells, 3 hours. The gist of the method: as §2

T4 sequence (P21802 whole entry N549K, the tested form may be a part): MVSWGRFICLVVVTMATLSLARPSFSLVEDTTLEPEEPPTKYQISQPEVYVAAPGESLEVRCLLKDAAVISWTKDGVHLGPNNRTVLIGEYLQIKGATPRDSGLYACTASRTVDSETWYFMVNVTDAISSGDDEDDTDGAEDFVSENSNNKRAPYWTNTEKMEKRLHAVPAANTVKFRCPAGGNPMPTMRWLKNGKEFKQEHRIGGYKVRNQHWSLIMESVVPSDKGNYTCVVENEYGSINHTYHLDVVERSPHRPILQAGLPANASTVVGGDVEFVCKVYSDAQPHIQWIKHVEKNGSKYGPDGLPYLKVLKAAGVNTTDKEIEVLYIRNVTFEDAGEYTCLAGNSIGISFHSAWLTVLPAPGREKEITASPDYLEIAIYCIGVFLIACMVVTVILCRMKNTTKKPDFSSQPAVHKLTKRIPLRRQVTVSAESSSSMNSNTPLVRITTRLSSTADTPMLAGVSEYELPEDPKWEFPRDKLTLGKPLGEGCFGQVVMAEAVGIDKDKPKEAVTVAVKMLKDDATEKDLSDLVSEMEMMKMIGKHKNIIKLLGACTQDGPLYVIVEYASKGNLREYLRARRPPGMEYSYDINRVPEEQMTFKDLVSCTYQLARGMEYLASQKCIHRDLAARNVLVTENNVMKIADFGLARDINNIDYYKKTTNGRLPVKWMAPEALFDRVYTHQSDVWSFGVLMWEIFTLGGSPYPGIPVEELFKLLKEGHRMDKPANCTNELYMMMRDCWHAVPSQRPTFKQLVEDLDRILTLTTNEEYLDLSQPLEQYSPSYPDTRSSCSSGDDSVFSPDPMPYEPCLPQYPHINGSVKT
T1 sequence (P21802 whole entry V564F, the tested form may be a part): as the sequence (P21802 whole entry N549K, the tested form may be a part) above, with K549N, V564F counted along it

As for `C=CC(=O)N1CCC2(CC=C(c3c(-c4cnccn4)c4c(N)ncnc4n3C)CC2)CC1` [Example 59, 1-(9-(4-amino-7-methyl-5-(pyrazin-2-yl)-7H-pyrrolo[2,3-d]pyrimidin-6-yl)-3-azaspiro[5.5]undec-8-en-3-yl)prop-2-en-1-one], the GI50 at Ba/F3 FGFR2-V564F is at most 0.001 µM; at Ba/F3 FGFR2-N549K it was 0.001 to 0.01 µM. Also, the IC50 in the test on KATO III is 0.03 to 0.1 µM; on FGFR1 it was over 0.1 µM; in the test on AN3CA, 0.03 to 0.1 µM; with SNU-16 it was 0.03 to 0.1 µM; on FGFR2, 0.001 to 0.01 µM; at FGFR3, over 0.1 µM. Moreover, at FGFR2, the “FGFR1 IC50/FGFR2 IC50” value was “F (a selectivity ratio greater than 50 but less than or equal to 150)”. The “FGFR3 IC50/FGFR2 IC50” value at FGFR2 is “H (a selectivity ratio greater than 500 but less than or equal to 1000)”.

In the case of `C=CC(=O)N1CCC2(CC=C(c3c(-c4ccc(Oc5nccc(C)n5)c(F)c4)c4c(N)ncnc4n3C)CC2)CC1` [Example 62, 1-(9-(4-amino-5-(3-fluoro-4-((4-methylpyrimidin-2-yl)oxy)phenyl)-7-methyl-7H-pyrrolo[2,3-d]pyrimidin-6-yl)-3-azaspiro[5.5]undec-8-en-3-yl)prop-2-en-1-one], the GI50 at Ba/F3 FGFR2-V564F is at most 0.001 µM; on Ba/F3 FGFR2-N549K, 0.01 to 0.03 µM. For the same compound, the IC50 in the test on KATO III was 0.01 to 0.03 µM; at FGFR1 it was over 0.1 µM; in the test on AN3CA, 0.03 to 0.1 µM; in the test with SNU-16, 0.01 to 0.03 µM; on FGFR2, 0.001 to 0.01 µM; on FGFR3, over 0.1 µM. Further, the “FGFR1 IC50/FGFR2 IC50” value at FGFR2 is “F (a selectivity ratio greater than 50 but less than or equal to 150)”. Besides, at FGFR2, the “FGFR3 IC50/FGFR2 IC50” value was “G (a selectivity ratio greater than 150 but less than or equal to 500)”.
